{"source": "PubChem BioAssay AID256", "about": "(DTP/NCI, 2004)", "test_system": "CD2F1 mice, L1210 leukemia ip, survival T/C", "assay": "NCI In Vivo Anticancer Drug Screen. Data for tumor model L1210 Leukemia (intraperitoneal) in CD2F1 (CDF1) mice", "settings": "higher = longer survival", "procedure,_shortened": "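Activity against a transplanted murine tumor was judged by comparing the compound group with a vehicle group. The outcome in the treated animals was divided by that in the controls.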", "note": "Where “and” joins values, the source holds several entries; their conditions need not be identical. Equal entries are not always repeated. Inconclusive results and toxic doses are left out."}
{"smiles": "O=C(NO)c1ccc(O)c(O)c1", "values": [{"measurement": "T/C", "setting": "endpoint: mean survival time, dose: 25.0 mg/kg/injection, schedule: Q01DX009 (ip), vehicle: water", "value": "115 % of control"}, {"measurement": "T/C", "setting": "endpoint: mean survival time, dose: 164.71 mg/kg/injection, schedule: Q01DX009 (ip), vehicle: water", "value": "121 % of control"}, {"measurement": "T/C", "setting": "endpoint: mean survival time, dose: 196.0 mg/kg/injection, schedule: Q01DX009 (ip), vehicle: water", "value": "152 % of control"}, {"measurement": "T/C", "setting": "endpoint: mean survival time, dose: 200.0 mg/kg/injection, schedule: Q01DX009 (ip), vehicle: water", "value": "167 % of control"}, {"measurement": "T/C", "setting": "endpoint: mean survival time, dose: 245.0 mg/kg/injection, schedule: Q01DX009 (ip), vehicle: water", "value": "168 % of control"}, {"measurement": "T/C", "setting": "endpoint: mean survival time, dose: 307.0 mg/kg/injection, schedule: Q01DX009 (ip), vehicle: water", "value": "167 % of control"}, {"measurement": "T/C", "setting": "endpoint: mean survival time, dose: 307.2 mg/kg/injection, schedule: Q01DX009 (ip), vehicle: water", "value": "176 % of control"}, {"measurement": "T/C", "setting": "endpoint: mean survival time, dose: 336.14 mg/kg/injection, schedule: Q01DX009 (ip), vehicle: water", "value": "155 % of control"}, {"measurement": "T/C", "setting": "endpoint: mean survival time, dose: 383.0 mg/kg/injection, schedule: Q01DX009 (ip), vehicle: water", "value": "185 % of control"}, {"measurement": "T/C", "setting": "endpoint: mean survival time, dose: 384.0 mg/kg/injection, schedule: Q01DX009 (ip), vehicle: water", "value": "162 % of control"}, {"measurement": "T/C", "setting": "endpoint: mean survival time, dose: 400.0 mg/kg/injection, schedule: Q01DX009 (ip), vehicle: water", "value": "167 % of control"}, {"measurement": "T/C", "setting": "endpoint: mean survival time, dose: 480.0 mg/kg/injection, schedule: Q01DX009 (ip), vehicle: water", "value": "167 % of control and 206 % of control"}, {"measurement": "T/C", "setting": "endpoint: mean survival time, dose: 480.2 mg/kg/injection, schedule: Q01DX009 (ip), vehicle: water", "value": "187 % of control"}, {"measurement": "T/C", "setting": "endpoint: mean survival time, dose: 600.0 mg/kg/injection, schedule: Q01DX009 (ip), vehicle: water", "value": "154 % of control and 164 % of control"}, {"measurement": "T/C", "setting": "endpoint: median survival time, dose: 18.75 mg/kg/injection, schedule: Q03HX024 (ip), vehicle: water", "value": "113 % of control"}, {"measurement": "T/C", "setting": "endpoint: median survival time, dose: 22.5 mg/kg/injection, schedule: Q03HX024 (ip), vehicle: water", "value": "109 % of control"}, {"measurement": "T/C", "setting": "endpoint: median survival time, dose: 37.5 mg/kg/injection, schedule: Q03HX024 (ip), vehicle: water", "value": "124 % of control"}, {"measurement": "T/C", "setting": "endpoint: median survival time, dose: 45.0 mg/kg/injection, schedule: Q03HX024 (ip), vehicle: water", "value": "119 % of control"}, {"measurement": "T/C", "setting": "endpoint: median survival time, dose: 50.0 mg/kg/injection, schedule: Q01DX009 (ip), vehicle: water", "value": "117 % of control"}, {"measurement": "T/C", "setting": "endpoint: median survival time, dose: 100.0 mg/kg/injection, schedule: Q01DX009 (ip), vehicle: water", "value": "124 % of control"}, {"measurement": "T/C", "setting": "endpoint: median survival time, dose: 120.0 mg/kg/injection, schedule: Q01DX009 (ip), vehicle: water", "value": "122 % of control"}, {"measurement": "T/C", "setting": "endpoint: median survival time, dose: 180.0 mg/kg/injection, schedule: Q03HX024 (ip), vehicle: water", "value": "214 % of control"}, {"measurement": "T/C", "setting": "endpoint: median survival time, dose: 225.0 mg/kg/injection, schedule: Q03HX024 (ip), vehicle: water", "value": "273 % of control"}, {"measurement": "T/C", "setting": "endpoint: median survival time, dose: 240.0 mg/kg/injection, schedule: Q01DX009 (ip), vehicle: water", "value": "154 % of control"}, {"measurement": "T/C", "setting": "endpoint: median survival time, dose: 268.0 mg/kg/injection, schedule: Q01DX009 (ip), vehicle: water", "value": "160 % of control"}, {"measurement": "T/C", "setting": "endpoint: median survival time, dose: 270.0 mg/kg/injection, schedule: Q03HX024 (ip), vehicle: water", "value": "238 % of control"}, {"measurement": "T/C", "setting": "endpoint: median survival time, dose: 400.0 mg/kg/injection, schedule: Q01DX009 (ip), vehicle: water", "value": "162 % of control and 163 % of control"}, {"measurement": "T/C", "setting": "endpoint: median survival time, dose: 480.0 mg/kg/injection, schedule: Q01DX009 (ip), vehicle: water", "value": "178 % of control"}, {"measurement": "T/C", "setting": "endpoint: median survival time, dose: 600.0 mg/kg/injection, schedule: Q01DX009 (ip), vehicle: water", "value": "95 % of control"}, {"measurement": "T/C", "setting": "endpoint: median survival time, dose: 720.0 mg/kg/injection, schedule: Q01DX009 (ip), vehicle: water", "value": "170 % of control"}]}
{"smiles": "CCCCCCCCCCCCCCCCNC(=O)C[N+](C)(C)Cc1ccccc1", "values": [{"measurement": "T/C", "setting": "endpoint: mean survival time, dose: 5.0 mg/kg/injection, schedule: Q04DX003 (ip), vehicle: saline with Tween-80", "value": "100 % of control"}, {"measurement": "T/C", "setting": "endpoint: mean survival time, dose: 10.0 mg/kg/injection, schedule: Q04DX003 (ip), vehicle: saline with Tween-80", "value": "101 % of control"}]}
{"smiles": "CC1(C)C(=O)C(Br)=Cc2ccccc21", "values": [{"measurement": "T/C", "setting": "endpoint: mean survival time, dose: 12.5 mg/kg/injection, schedule: Q01DX009 (ip), vehicle: other", "value": "105 % of control"}, {"measurement": "T/C", "setting": "endpoint: mean survival time, dose: 25.0 mg/kg/injection, schedule: Q01DX009 (ip), vehicle: other", "value": "100 % of control"}, {"measurement": "T/C", "setting": "endpoint: mean survival time, dose: 50.0 mg/kg/injection, schedule: Q01DX009 (ip), vehicle: other", "value": "111 % of control"}, {"measurement": "T/C", "setting": "endpoint: mean survival time, dose: 100.0 mg/kg/injection, schedule: Q01DX009 (ip), vehicle: other", "value": "108 % of control"}, {"measurement": "T/C", "setting": "endpoint: mean survival time, dose: 200.0 mg/kg/injection, schedule: Q01DX009 (ip), vehicle: other", "value": "105 % of control"}]}
{"smiles": "O=C(C[n+]1ccc2ccccc2c1)c1ccc2ccccc2c1", "values": [{"measurement": "T/C", "setting": "endpoint: mean survival time, dose: 12.5 mg/kg/injection, schedule: Q04DX003 (ip), vehicle: saline with Tween-80", "value": "92 % of control"}, {"measurement": "T/C", "setting": "endpoint: mean survival time, dose: 25.0 mg/kg/injection, schedule: Q04DX003 (ip), vehicle: saline with Tween-80", "value": "86 % of control"}]}
{"smiles": "CCC(=O)Nc1ncc([N+](=O)[O-])s1", "values": [{"measurement": "T/C", "setting": "endpoint: mean survival time, dose: 50.0 mg/kg/injection, schedule: Q01DX009 (ip), vehicle: saline with Tween-80", "value": "94 % of control"}, {"measurement": "T/C", "setting": "endpoint: mean survival time, dose: 100.0 mg/kg/injection, schedule: Q01DX009 (ip), vehicle: saline with Tween-80", "value": "100 % of control"}]}
{"smiles": "c1cc(OCC2CO2)ccc1OCC1CO1", "note": "(configuration not stated)", "values": [{"measurement": "T/C", "setting": "endpoint: mean survival time, dose: 25.0 mg/kg/injection, schedule: Q01DX009 (ip), vehicle: Klucel (hydroxypropylcellulose) (HPC)", "value": "110 % of control"}, {"measurement": "T/C", "setting": "endpoint: mean survival time, dose: 50.0 mg/kg/injection, schedule: Q01DX009 (ip), vehicle: Klucel (hydroxypropylcellulose) (HPC)", "value": "107 % of control"}, {"measurement": "T/C", "setting": "endpoint: mean survival time, dose: 100.0 mg/kg/injection, schedule: Q01DX009 (ip), vehicle: Klucel (hydroxypropylcellulose) (HPC)", "value": "113 % of control"}]}
{"smiles": "CCCCCCCCCCCCCCCCS(=O)(=O)CCO", "values": [{"measurement": "T/C", "setting": "endpoint: mean survival time, dose: 100.0 mg/kg/injection, schedule: Q04DX003 (ip), vehicle: saline with Tween-80", "value": "90 % of control"}, {"measurement": "T/C", "setting": "endpoint: mean survival time, dose: 200.0 mg/kg/injection, schedule: Q04DX003 (ip), vehicle: saline with Tween-80", "value": "88 % of control"}, {"measurement": "T/C", "setting": "endpoint: mean survival time, dose: 400.0 mg/kg/injection, schedule: Q04DX003 (ip), vehicle: saline with Tween-80", "value": "90 % of control"}]}
